In US20110098309A1, “METHODS OF INHIBITING THE FORMATION OF AMYLOID-BETA DIFFUSABLE LIGANDS USING ACYLHYDRAZIDE COMPOUNDS” (priority 2007, published 2011) one finds IC50 data, which are given here for 33 molecules.

Chain of Aβ1-42 (P05067 672-713 limits assumed): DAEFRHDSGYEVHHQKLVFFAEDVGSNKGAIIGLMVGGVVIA

The assay concerns the target Aβ1-42 (Homo sapiens, UniProt P05067). The assay can be described thus: FRET assay of Aβ1-42 oligomer (ADDL) assembly inhibition. The settings on record: 0.2 μM FITC-Aβ(1-42) and 0.8 μM Aβ(1-42), 37° C., six concentrations from about 10 μM to about 0.03 μM. It counts as biochemical. The text has this:
Fluorescence (or Förster) Resonance Energy Transfer (FRET) is a distance-dependent, non-radiative transfer of energy in which the de-excitation of one fluorophore (donor) is coupled to excitation of another fluorophore (acceptor). FRET occurs if (1) the quantum of energy emitted by a donor fluorophore corresponds to an acceptor fluorophore's excitation energy, (2) the orientations of donor and acceptor transition dipoles are nearly parallel and (3) the donor fluorescent emission spectrum overlaps the acceptor absorption spectrum.
In this assay, assembly of Aβ1-42 oligomer formation is monitored by FRET using N-terminal conjugates of fluorescein-Aβ1-42 as both the donor and acceptor fluorophore (fluorescein-fluorescein Ro˜45 Å). […] Inhibition of Aβ1-42 assembly is observed as the absence or attenuation of fluorescein quenching.
FRET and FP assays are performed in 384-well Corning Non-Binding Surface, black, opaque microtiter plates, and the assay buffer consists of 25 mM MOPS-Tris (pH 8.0) with 100 mM MgCl2. The assay volume, containing 0.2 μM FITC-Aβ(1-42) and 0.8 μM Aβ(1-42), is 50 μl and the temperature is 37° C. […] Kinetic traces are collected by recording fluorescence intensity and polarization readings every five minutes over about a three hour time course. […] Positive control reactions contain all buffer components in the absence of added small molecule or antibody reagents. To test for ADDL assembly inhibition, the compound was incubated with the peptide mixture at six concentrations from about 10 μM decreasing to about 0.03 μM.
In general, IC50 refers to the concentration that gives 50% inhibition. High values mean lower potency, low ones higher potency. For the molecule `O=C(C/C(=N\NC(=O)c1ccccc1O)C(F)(F)F)c1ccco1` [Compound 1, 2-hydroxy-N′-(1,1,1-trifluoro-4-(furan-2-yl)-4-oxobutan-2-ylidene)benzohydrazide], the IC50 is 4.2 µM.
`O=C(N/N=C(/CC(=O)N1CCN(Cc2ccccc2)CC1)C(F)(F)F)c1ccccc1O` [Compound 3, N′-(4-(4-benzylpiperazin-1-yl)-1,1,1-trifluoro-4-oxobulan-2-ylidene)-2-hydroxy-benzohydrazide] returned an IC50 of 5.2 µM.
`C/C(CC(=O)c1ccco1)=N\NC(=O)c1sc2cc(F)ccc2c1Cl` [Compound 4, 3-chloro-6-fluoro-N′-(4-(furan-2-yl)-4-oxobutan-2-ylidene)benzo[b]-thiophene-2-carbohydrazide]: the IC50 stood at 5.9 µM.
Next, `CS(=O)(=O)Nc1ccccc1C(=O)N/N=C(/CC(=O)c1cccs1)C(F)(F)F` [Compound 5, N-(2-(2-(1,1,1-trifluoro-4-oxo-4-(thiophen-2-yl)butan-2-ylidene)hydrazine-carbonyl)phenyl)methanesulfonamide]: 6 µM; `CN1CCN(C(=O)C/C(=N/NC(=O)c2ccccc2O)C(F)(F)F)CC1` [Compound 6, 2-hydroxy-N′-(1,1,1-trifluoro-4-(4-methylpiperazin-1-yl)-4-oxobutan-2-ylidene) benzohydrazide]: 7.1 µM; `CC(C)(C)C(=O)C/C(=N/NC(=O)c1ccccc1O)C(F)(F)F` [Compound 7, 2-hydroxy-N′-(1,1,1-trifluoro-5,5-dimethyl-4-oxohexan-2-ylidene)benzohydrazide]: 7.4 µM.
Under `O=C(C/C(=N/NC(=O)c1ccccc1O)C(F)(F)F)c1cc2ccccc2s1` [Compound 8, N′-(4-(benzo[b]thiophen-2-yl)-1,1,1-trifluoro-4-oxobutan-2-ylidene)-2-hydroxy benzohydrazide] stands 7.7 µM.
With `Cn1nccc1C(=O)C/C(=N/NC(=O)c1ccccc1O)C(F)(F)F` [Compound 9, 2-hydroxy-N′-(1,1,1-trifluoro-4-(1-methyl-1H-pyrazol-5-yl)-4-oxobutan-2-ylidene) benzohydrazide], the IC50 is 8.2 µM.
Regarding `Cc1ccc(C(=O)C/C(=N/NC(=O)c2sc3cc(F)ccc3c2Cl)C(F)(F)F)s1` [Compound 10, 3-chloro-6-fluoro-N′-(1,1,1-trifluoro-4-(5-methylthiophen-2-yl)-4-oxobutan-2-ylidene)benzo[b]thiophene-2-carbohydrazide], the IC50 amounted to 8.3 µM.
Next, `Cc1nnsc1C(=O)N/N=C(/CC(=O)c1cccs1)C(F)(F)F` [Compound 11, 4-methyl-N′-(1,1,1-trifluoro-4-oxo-4-(thiophen-2-yl)butan-2-ylidene)-1,2,3-thiadiazole-5-carbohydrazide]: 8.4 µM.
Under `CC(C)(C)C(=O)C/C(=N/NC(=O)c1sc2cc(F)ccc2c1Cl)C(F)(F)F` [Compound 12, 3-chloro-6-fluoro-N′-(1,1,1-trifluoro-5,5-dimethyl-4-oxohexan-2-ylidene)benzo[b]thiophene-2-carbohydrazide] stands 8.6 µM; under `Cc1ccc(C(=O)C/C(=N/NC(=O)c2ccccc2O)C(F)(F)F)s1` [Compound 13, 2-hydroxy-N′-(1,1,1-trifluoro-4-(5-methylthiophen-2-yl)-4-oxobutan-2-ylidene) benzohydrazide], 9.1 µM; under `O=C(C/C(=N/NC(=O)c1sc2ccccc2c1Cl)C(F)(F)F)c1cccs1` [Compound 14, 3-chloro-N′-(1,1,1-trifluoro-4-oxo-4-(thiophen-2-yl)butan-2-ylidene)benzo[b]thiophene-2-carbohydrazide], 9.5 µM.
Next, `O=C(C/C(=N\NC(=O)c1sc2ccccc2c1Cl)C(F)(F)F)c1ccco1` [Compound 15, 3-chloro-N′-(1,1,1-trifluoro-4-(furan-2-yl)-4-oxobutan-2-ylidene)benzo[b]thiophene-2-carbohydrazide]: 9.5 µM; `O=C(C/C(=N/NC(=O)c1ccccc1NS(=O)(=O)c1ccc(Cl)cc1)C(F)(F)F)c1cccs1` [Compound 16, 4-chloro-N-(2-(2-(1,1,1-trifluoro-4-oxo-4-(thiophen-2-yl)butan-2-ylidene) hydrazinecarbonyl)phenyl)benzenesulfonamide]: 9.7 µM; `O=C(C/C(=N/NC(=O)c1sc2cc(F)ccc2c1Cl)C(F)(F)F)c1cc2ccccc2s1` [Compound 17, N′-(4-(benzo[b]thiophen-2-yl)-1,1,1-trifluoro-4-oxobutan-2-ylidene)-3-chloro-6-fluorobenzo[b] thiophene-2-carbohydrazide]: 10.2 µM.
The molecule `O=C(N/N=C(/CC(=O)N1CCOCC1)C(F)(F)F)c1ccccc1O` [Compound 18, 2-hydroxy-N′-(1,1,1-trifluoro-4-morpholino-4-oxobutan-2-ylidene)benzohydrazide] came in with an IC50 of 10.4 µM.
Next, `O=C(C/C(=N/NC(=O)c1ccccc1O)C(F)(F)F)c1ccc(Cl)s1` [Compound 19, N′-(4-(5-chlorothiophen-2-yl)-1,1,1-trifluoro-4-oxobutan-2-ylidene)-2-hydroxy benzohydrazide]: 11.5 µM; `O=C(C/C(=N/NC(=O)c1cc(Cl)ccc1O)C(F)(F)F)c1cccs1` [Compound 20, 5-chloro-2-hydroxy-N′-(1,1,1-trifluoro-4-oxo-4-(thiophen-2-yl)butan-2-ylidene)benzohydrazide]: 11.9 µM; `Cc1csc(C(=O)N/N=C(/CC(=O)c2cccs2)C(F)(F)F)c1Cl` [Compound 21, 3-chloro-4-methyl-N′-(1,1,1-trifluoro-4-oxo-4-(thiophen-2-yl)butan-2-ylidene)thiophene-2-carbohydrazide]: 12.5 µM.
Under `O=C(C/C(=N/NC(=O)c1cccc2cc[nH]c12)C(F)(F)F)c1cccs1` [Compound 22, N′-(1,1,1-trifluoro-4-oxo-4-(thiophen-2-yl)butan-2-ylidene)-1H-indole-7-carbohydrazide] stands 13.5 µM; under `O=C(C/C(=N/NC(=O)c1sc2cc(F)ccc2c1Cl)C(F)(F)F)c1ccc(Cl)s1` [Compound 23, 3-chloro-N′-(4-(5-chlorothiophen-2-yl)-1,1,1-trifluoro-4-oxobulan-2-ylidene)-6-fluorobenzo[b]thiophene-2-carbohydrazide], 16 µM; under `O=C(C/C(=N/NC(=O)c1sc2cc(F)ccc2c1Cl)C(F)(F)F)c1cccs1` [Compound 24, 3-chloro-6-fluoro-N′-(1,1,1-trifluoro-4-oxo-4-(thiophen-2-yl)butan-2-ylidene)benzo[b]thiophene-2-carbohydrazide], 16.1 µM.
Regarding `Cc1cccc(C(=O)N/N=C(/CC(=O)c2cccs2)C(F)(F)F)c1O` [Compound 25, 2-hydroxy-3-methyl-N′-(1,1,1-trifluoro-4-oxo-4-(thiophen-2-yl)butan-2-ylidene)benzohydrazide], the IC50 is 16.3 µM.
Next, `O=C(N/N=C(/CC(=O)c1cccs1)C(F)(F)F)c1ccc(Br)cc1` [Compound 27, 4-bromo-N′-(1,1,1-trifluoro-4-oxo-4-(thiophen-2-yl)butan-2-ylidene)benzohydrazide]: 18.8 µM.
On to `O=C(C/C(=N/NC(=O)c1cc2ccccc2s1)C(F)(F)F)c1cccs1` [Compound 28, N′-(1,1,1-trifluoro-4-oxo-4-(thiophen-2-yl)butan-2-ylidene)benzo[b]thiophene-2-carbohydrazide], for which the IC50 is 19.4 µM. The IC50 values of the last two molecules are within 1.5-fold of each other.
Under `C/C(CC(=O)N1CCC(c2ccccc2)CC1)=N\NC(=O)c1ccccc1O` [Compound 29, 2-hydroxy-N′-(4-oxo-4-(4-phenylpiperidin-1-yl)butan-2-ylidene)benzohydrazide] stands 26.7 µM; under `O=C(C/C(=N/NC(=O)c1[nH]c2ccccc2c1Cl)C(F)(F)F)c1cccs1` [Compound 30, 3-chloro-N′-(1,1,1-trifluoro-4-oxo-4-(thiophen-2-yl)butan-2-ylidene)-1H-indole-2-carbohydrazide], 28.3 µM.
Under `O=C(C/C(=N\NC(=O)c1sc2cc(F)ccc2c1Cl)C(F)(F)F)c1ccco1` [Compound 31, 3-chloro-6-fluoro-N′-(1,1,1-trifluoro-4-(furan-2-yl)-4-oxobulan-2-ylidene)benzo[b]thiophene-2-carbohydrazide] stands 30.2 µM; under `C/C(CC(N)=O)=N\NC(=O)c1ccccc1O` [Compound 32, 3-(2-(2-hydroxybenzoyl)hydrazono)butanamide], 35 µM.
Molecule `Cc1ccc(C(=O)N/N=C(/CC(=O)c2cccs2)C(F)(F)F)cc1` [Compound 33, 4-methyl-N′-(1,1,1-trifluoro-4-oxo-4-(thiophen-2-yl)butan-2-ylidene)benzohydrazide] had an IC50 of 40.8 µM.
Next, `O=C(C/C(=N/NC(=O)c1cnn(-c2ccccc2)c1C(F)(F)F)C(F)(F)F)c1cccs1` [Compound 34, 1-phenyl-N′-(1,1,1-trifluoro-4-oxo-4-(thiophen-2-yl)butan-2-ylidene)-5-(trifluoromethyl)-1H-pyrazole-4-carbohydrazide]: 40.9 µM; `O=C(C/C(=N/NC(=O)c1c(F)cccc1F)C(F)(F)F)c1cccs1` [Compound 35, 2,6-difluoro-N′-(1,1,1-trifluoro-4-oxo-4-(thiophen-2-yl)butan-2-ylidene)benzohydrazide]: 41.2 µM.
